According to patent EP1724268A1, “COMPOUND HAVING TGF-BETA INHIBITORY ACTIVITY AND PHARMACEUTICAL COMPOSITION CONTAINING SAME” (KIRIN BEER KABUSHIKI KAISHA, priority 2004, dated 2005):
Marks after values point to notes of the source that are not given here.

What was measured:
[1] = test system: mouse DMN hepatic fibrosis model; test: Anti-fibrotic activity, mouse DMN hepatic fibrosis model (Test Example 4); assay type: in vivo, BALB/c mice; conditions: DMN administration, 21 days, average of 6 mice ± standard deviation
Method: The anti-fibrotic activity of a compound related to the present invention was evaluated using a mouse DMN hepatic fibrosis model as a liver fibrosis model. Compound r384 prepared in the working example was used as the test compound. Six-week-old male BALB/c mice (available from Charles River Japan, Inc.) were purchased and were pre-raised before use in experiments. The mice were divided into a vehicle administration group (n = 6) and a test compound administration group ([…]) using the weight as an index. Thereafter, dimethylnitrosoamine (DMN) diluted with physiological saline was intraperitoneally administered at 15 mg/kg three times per week for 3 weeks to induce hepatic fibrosis. The administration of the test compound was carried out from the first day of the DMN administration. The test compound was mixed at the dosage of 0.015, 0.03, and 0.06% in powder diet CE-2 (available from CLEA JAPAN INC.), and the mixtures were fed as a diet to each mouse group. After 21 days, the mice underwent laparotomy under ether anesthesia, and blood was collected from the heart, followed by measurement of the level of hyaluronic acid in blood as an index of hepatic fibrosis using a hyaluronic acid plate (Chugai Pharmaceutical Co., Ltd.).
The values in the table are average of data on 6 mice for each group ± standard deviation.

[2] = test system: mouse unilateral ureteral obstruction (UUO) model; test: Anti-fibrotic activity, mouse unilateral ureteral obstruction (UUO) model, oral administration (Test Example 2); assay type: in vivo, BALB/c mice; conditions: UUO treatment, left kidney, average of 7 mice ± standard deviation
Method: The anti-fibrotic activity of the compounds related to the present invention was evaluated using a mouse unilateral ureteral obstruction (UUO) model which is a renal fibrosis model. Compound r384 produced in the working example was used as the test compound. Seven week-old male BALB/c mice (available from Charles River Japan, Inc.) were purchased and were pre-raised before use in experiments. Regarding diets and drinking water, pellets CE-2 (available from CLEA JAPAN INC.) and sterile tap water were freely fed. The mice underwent laparotomy under pentobarbital anesthesia, and the left renal urinary duct was ligated. Thereafter, the mice underwent suturing operation and were divided into a vehicle administration group (n = 7) and a test compound administration group (n = 7) using the weight as an index. The test compound was weighed, and then one drop of 1 N HCl was added to the test compound to prepare a solution. The solution was then suspended in 0.5% carboxymethylcellulose (solvent). The suspension was forcibly orally administered twice a day with an oral sonde from the day of urinary duct ligation (5, 15, or 50 mg/kg). The solvent was administered to the vehicle administration group in the same manner as described just above.
After administration for 4 days, the mouse left kidney was removed, and the hydroxyproline content as an index of organ fibrosis was measured by the following method. Renal pieces were first placed in 6 N HCl, were homogenized, and were then heated on a heat block at 130°C for 3 hr to hydrolyze protein. Thereafter, the suspension of renal pieces was neutralized by the addition of an appropriate amount of 4 N NaOH. The neutralized suspension was centrifuged (1000 rpm, 5 min, room temperature) to obtain the supernatant as a kidney extract. […] The absorbance at 557 nm was then measured. The content of hydroxyproline was determined from the measured data based on a calibration curve for hydroxyproline prepared using control. Further, the content of hydroxyproline thus determined was corrected according to the weight of the homogenized kidney. […]

TGFβ signal = TGFβ signal inhibitory activity, (SBE)4-Luc reporter in A549 cells (Test Examples 1A and 1B); assay type: cell-based, human; conditions: Homo sapiens, A549, compounds of Reference Examples (Test Example 1B), read-out: TGFβ inhibition rate, %
Procedure, shortened: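 Stable A549 line carrying (SBE)4-Luc Smad3-binding reporter treated with compound plus TGFβ-1 (2 ng/ml) for 4 hr; luciferase read by chemiluminescence. Percent inhibition relative to TGFβ-only and untreated cells, tested at 3 µM and 10 µM, some also at 1 µM.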

Which “Blood hyaluronic acid content” value ([1]; 0.015% mixed feed) does the source give for `COc1cc2c(Oc3cc4ccccc4nc3C)ccnc2cc1OCC(O)CO` (stereo not shown) [Compound r384, 3-[6-Methoxy-4-(2-metharl-quinolin-3-yloxy)-quinolin-7-yloxy]-propane-1,2-diol] here?
The value was 167.8 ± 25.0 ng/mL.

And the “Blood hyaluronic acid content (ng/ml)” value ([1]; 0.06% mixed feed)?
Its value is 97.2 + 11.0** ng/ml.

And the Hydroxyproline content ([2]; 5 mg/kg orally twice a day for 4 days)?
The Hydroxyproline content was 514 ± 20.8 µg/g.

What about the Hydroxyproline content ([2]; 15 mg/kg orally twice a day for 4 days) of the same compound?
The Hydroxyproline content was 488 ± 10.9 µg/g.

What about the Hydroxyproline content ([2]; 50 mg/kg orally twice a day for 4 days) of the same compound?
The Hydroxyproline content was 426 ± 14.2 µg/g.

And the inhibition at 3 µM (TGFβ signal; 3 µM)?
The inhibition at 3 µM was 100%.

And the inhibition at 10 µM (TGFβ signal; 10 µM)?
Its inhibition at 10 µM is 100%.
